According to US11312719B2, “9-substituted amino triazolo quinazoline derivatives as adenosine receptor antagonists, pharmaceutical compositions and their use” (Merck Sharp & Dohme Corp., priority 2018, dated 2022):
Blank lines part the entries; values can stand above or below the compound they belong to.

Key:
human A2A receptors = human A2A receptors (Homo sapiens (Human), UniProt P29274); assay: A2A antagonism in cAMP cell-based assay (LANCE cAMP, HEK293); settings: HEK293 cells expressing human A2A receptor
human A2A receptors, sequence (P29274 whole entry): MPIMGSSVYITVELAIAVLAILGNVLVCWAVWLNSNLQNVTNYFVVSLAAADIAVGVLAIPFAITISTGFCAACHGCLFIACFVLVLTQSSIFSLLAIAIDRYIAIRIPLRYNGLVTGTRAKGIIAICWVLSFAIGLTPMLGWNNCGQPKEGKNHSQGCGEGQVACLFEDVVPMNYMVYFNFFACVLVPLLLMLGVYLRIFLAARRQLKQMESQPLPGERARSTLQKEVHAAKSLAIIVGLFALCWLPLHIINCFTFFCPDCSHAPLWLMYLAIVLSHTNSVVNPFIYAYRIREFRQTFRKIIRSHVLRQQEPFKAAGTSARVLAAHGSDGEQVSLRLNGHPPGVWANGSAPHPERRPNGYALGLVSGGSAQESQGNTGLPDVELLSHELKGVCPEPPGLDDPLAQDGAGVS
In short: (§1)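 HEK293 cells expressing human A2A or A2B, in HBSS/5 mM HEPES/200 nM rolipram, were preincubated with compound (0.5–10,000 nM, 0.25% DMSO) 30 min at 37° C. Adenosine was then added from 300 nM (A2A) or 600 nM (A2B) solution for 30 min.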

human A2B receptors = human A2B receptors (Homo sapiens (Human), UniProt P29275); assay: A2B antagonism in cAMP cell-based assay (LANCE cAMP, HEK293); settings: HEK293 cells expressing human A2B receptor; for A2B cAMP % Inh. @10000 nM: at 10000 nM
human A2B receptors, sequence (P29275 whole entry): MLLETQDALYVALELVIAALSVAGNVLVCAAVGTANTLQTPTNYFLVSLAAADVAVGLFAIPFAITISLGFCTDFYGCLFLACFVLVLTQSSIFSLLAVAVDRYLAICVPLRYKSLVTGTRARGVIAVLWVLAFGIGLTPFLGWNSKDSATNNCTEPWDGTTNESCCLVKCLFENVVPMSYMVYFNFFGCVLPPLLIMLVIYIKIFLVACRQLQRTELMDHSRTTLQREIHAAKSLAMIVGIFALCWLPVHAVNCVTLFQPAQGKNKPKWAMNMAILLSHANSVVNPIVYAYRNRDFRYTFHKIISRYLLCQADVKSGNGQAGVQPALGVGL
In short: as §1

SMILES: COc1cc2nc(N)n3nc(C4CCC(C)N(c5cnn(C(C)C(C)O)c5)C4)nc3c2cc1F (single isomer, unassigned) [Example 238, (2S,3R or 2R,3S)-3-(4-((2R,5S or 2S,5R)-5-(5-amino-9-fluoro-8-methoxy-[1,2,4]triazolo[1,5-c]quinazolin-2-yl)-2-methylpiperidin-1-yl)-1H-pyrazol-1-yl)butan-2-ol]
IC50 (human A2A receptors): 21.8 nM | IC50 (human A2B receptors): 2440 nM

SMILES: COc1cc2nc(N)n3nc([C@@H]4CCCN(c5cnn(C(C)(C)C(C)O)c5)C4)nc3c2cc1F (single isomer, unassigned) [Example 242, (R or S)-3-(4-((R)-3-(5-amino-9-fluoro-8-methoxy-[1,2,4]triazolo[1,5-c]quinazolin-2-yl)piperidin-1-yl)-1H-pyrazol-1-yl)-3-methylbutan-2-ol]
IC50 (human A2A receptors): 2 nM | IC50 (human A2B receptors): 34.9 nM

SMILES: COc1cc2nc(N)n3nc([C@@H]4CCCN(c5cnn(C(C)(C)C(C)O)c5)C4)nc3c2cc1F (single isomer, unassigned) [Example 243, (S or R)-3-(4-((R)-3-(5-amino-9-fluoro-8-methoxy-[1,2,4]triazolo[1,5-c]quinazolin-2-yl)piperidin-1-yl)-1H-pyrazol-1-yl)-3-methylbutan-2-ol]
IC50 (human A2A receptors): 2.6 nM | IC50 (human A2B receptors): 50.7 nM

SMILES: CC(O)C(C)(C)n1cc(N2CCC[C@@H](c3nc4c5cc(F)cc(F)c5nc(N)n4n3)C2)cn1 (single isomer, unassigned) [Example 247, (S or R)-3-(4-((R)-3-(5-amino-7,9-difluoro-[1,2,4]triazolo [1,5-c]quinazolin-2-yl)piperidin-1-yl)-1H-pyrazol-1-yl)-3-methylbutan-2-ol]
IC50 (human A2A receptors): 4.5 nM | IC50 (human A2B receptors): 21.8 nM

SMILES: COc1cc2nc(N)n3nc(C4CCC(C)N(c5cnn(C(C)(CO)CO)c5)C4)nc3c2cc1F (single isomer, unassigned) [Example 250, 2-(4-((2S,5R or 2R,5S)-5-(5-amino-9-fluoro-8-methoxy-[1,2,4]triazolo[1,5-c]quinazolin-2-yl)-2-methylpiperidin-1-yl)-1H-pyrazol-1-yl)-2-methylpropane-1,3-diol]
IC50 (human A2A receptors): 0.7 nM | IC50 (human A2B receptors): 4.9 nM

SMILES: COc1cc2nc(N)n3nc(C4CCC(C)N(c5cnn(C(C)(CO)CO)c5)C4)nc3c2cc1F (single isomer, unassigned) [Example 251, 2-(4-((2R,5S or 2S,5R)-5-(5-amino-9-fluoro-8-methoxy-[1,2,4]triazolo[1,5-c]quinazolin-2-yl)-2-methylpiperidin-1-yl)-1H-pyrazol-1-yl)-2-methylpropane-1,3-diol]
IC50 (human A2A receptors): 39.5 nM | IC50 (human A2B receptors): 387 nM

SMILES: COc1cc2nc(N)n3nc(C4CCC(C)N(c5cnn(CC(C)(O)CO)c5)C4)nc3c2cc1F (single isomer, unassigned) [Example 252]
IC50 (human A2A receptors): 95 nM | IC50 (human A2B receptors): 8160 nM

SMILES: COc1cc2nc(N)n3nc(C4CCC(C)N(c5cnn(CC(C)(O)CO)c5)C4)nc3c2cc1F (single isomer, unassigned) [Example 254]
IC50 (human A2A receptors): 1.5 nM | IC50 (human A2B receptors): 10 nM

SMILES: CC1CCC(c2nc3c4cc(F)cc(F)c4nc(N)n3n2)CN1c1cnn(CC(C)(CO)CO)c1 (single isomer, unassigned) [Example 260]
IC50 (human A2A receptors): 1.7 nM | IC50 (human A2B receptors): 10 nM

SMILES: CC1CCC(c2nc3c4cc(F)cc(F)c4nc(N)n3n2)CN1c1cnn(CC(C)(CO)CO)c1 (single isomer, unassigned) [Example 261]
IC50 (human A2A receptors): 86.6 nM | IC50 (human A2B receptors): 1470 nM

Continued by falling IC50 (human A2A receptors), values first:

IC50 (human A2A receptors): 541 nM | A2B cAMP % Inh. @10000 nM (human A2B receptors): 25% Inh.
SMILES: CC1CCC(c2nc3c4cc(F)cc(F)c4nc(N)n3n2)CN1c1cnn(CC(C)(O)CO)c1 (single isomer, unassigned) [Example 257, (S or R)-2-(4-((2S,5R or 2R,5S)-5-(5-amino-7,9-difluoro-[1,2,4]triazolo[1,5-c]quinazolin-2-yl)-2-methylpiperidin-1-yl)-1H-pyrazol-1-yl)-2-methylpropane-1,2-diol]

IC50 (human A2A receptors): 241 nM | IC50 (human A2B receptors): 3890 nM
SMILES: CC1CCC(c2nc3c4cc(F)cc(F)c4nc(N)n3n2)CN1c1cnn(CC(C)(O)CO)c1 (single isomer, unassigned) [Example 256]

IC50 (human A2A receptors): 123 nM | IC50 (human A2B receptors): > 10000 nM
SMILES: COc1cc2nc(N)n3nc(C4CCC(C)N(c5cnn(CC(C)(O)CO)c5)C4)nc3c2cc1F (single isomer, unassigned) [Example 253, (S or R)-2-(4-((2S,5R or 2R,5S)-5-(5-amino-9-fluoro-8-methoxy-[1,2,4]triazolo[1,5-c]quinazolin-2-yl)-2-methylpiperidin-1-yl)-1H-pyrazol-1-yl)-2-methylpropane-1,2-diol]

IC50 (human A2A receptors): 75.1 nM | A2B cAMP % Inh. @10000 nM (human A2B receptors): 10% Inh.
SMILES: COc1cc2nc(N)n3nc(C4CCC(C)N(c5cnn(C(C)C(C)O)c5)C4)nc3c2cc1F (single isomer, unassigned) [Example 239, (2R,3S or 2S,3R)-3-(4-((2R,5S or 2S,5R)-5-(5-amino-9-fluoro-8-methoxy-[1,2,4]triazolo[1,5-c]quinazolin-2-yl)-2-methylpiperidin-1-yl)-1H-pyrazol-1-yl)butan-2-ol]

IC50 (human A2A receptors): 26.9 nM | IC50 (human A2B receptors): 197 nM
SMILES: C[C@@H]1CC[C@H](c2nc3c4cc(F)cc(F)c4nc(N)n3n2)CN1c1cnn(C(C)(CO)CO)c1 (single isomer, unassigned) [Example 249, 2-(4-((2R,5S or 2S,5R)-5-(5-amino-7,9-difluoro-[1,2,4]triazolo[1,5-c]quinazolin-2-yl)-2-methylpiperidin-1-yl)-1H-pyrazol-1-yl)-2-methylpropane-1,3-diol]

IC50 (human A2A receptors): 26 nM | IC50 (human A2B receptors): 511 nM
SMILES: COc1cc2nc(N)n3nc(C4CCC(C)N(c5cnn(CC(C)(C)N)c5)C4)nc3c2cc1F (single isomer, unassigned) [Example 263, 2-((3S,6R or 3R,6S)-1-(1-(2-amino-2-methylpropyl)-1H-pyrazol-4-yl)-6-methylpiperidin-3-yl)-9-fluoro-8-methoxy-[1,2,4]triazolo[1,5-c]quinazolin-5-amine]

IC50 (human A2A receptors): 3.2 nM | IC50 (human A2B receptors): 21.3 nM
SMILES: CC(O)C(C)(C)n1cc(N2CCC[C@@H](c3nc4c5cc(F)cc(F)c5nc(N)n4n3)C2)cn1 (single isomer, unassigned) [Example 246, (R or S)-3-(4-((R)-3-(5-amino-7,9-difluoro-[1,2,4]triazolo [1,5-c]quinazolin-2-yl)piperidin-1-yl)-1H-pyrazol-1-yl)-3-methylbutan-2-ol]

IC50 (human A2A receptors): 3 nM | IC50 (human A2B receptors): 14.3 nM
SMILES: COc1cc2nc(N)n3nc(C4CCC(C)N(c5cnn(C(C)(C)C(C)O)c5)C4)nc3c2cc1F (single isomer, unassigned) [Example 264, (R or S)-3-(4-((2S,5R or 2R,5S)-5-(5-amino-9-fluoro-8-methoxy-[1,2,4]triazolo[1,5-c]quinazolin-2-yl)-2-methylpiperidin-1-yl)-1H-pyrazol-1-yl)-3-methylbutan-2-ol]

IC50 (human A2A receptors): 2.6 nM | IC50 (human A2B receptors): 28.8 nM
SMILES: COc1cc2nc(N)n3nc(C4CCC(C)N(c5cnn(CC(C)(O)CO)c5)C4)nc3c2cc1F (single isomer, unassigned) [Example 255]

IC50 (human A2A receptors): 2.3 nM | IC50 (human A2B receptors): 8.1 nM
SMILES: CC1CCC(c2nc3c4cc(F)cc(F)c4nc(N)n3n2)CN1c1cnn(CC(C)(O)CO)c1 (single isomer, unassigned) [Example 258, (R or S)-2-(4-((2R,5S or 2S,5R)-5-(5-amino-7,9-difluoro-[1,2,4]triazolo[1,5-c]quinazolin-2-yl)-2-methylpiperidin-1-yl)-1H-pyrazol-1-yl)-2-methylpropane-1,2-diol]

IC50 (human A2A receptors): 2.3 nM | IC50 (human A2B receptors): 11.8 nM
SMILES: CC1CCC(c2nc3c4cc(F)cc(F)c4nc(N)n3n2)CN1c1cnn(CC(C)(O)CO)c1 (single isomer, unassigned) [Example 259, (S or R)-2-(4-((2R,5S or 2S,5R)-5-(5-amino-7,9-difluoro-[1,2,4]triazolo[1,5-c]quinazolin-2-yl)-2-methylpiperidin-1-yl)-1H-pyrazol-1-yl)-2-methylpropane-1,2-diol]

IC50 (human A2A receptors): 2.2 nM | IC50 (human A2B receptors): 23.9 nM
SMILES: COc1cc2nc(N)n3nc(C4CCC(C)N(c5cnn(CC(C)(C)N)c5)C4)nc3c2cc1F (single isomer, unassigned) [Example 262, 2-((3R,6S or 3S,6R)-1-(1-(2-amino-2-methylpropyl)-1H-pyrazol-4-yl)-6-methylpiperidin-3-yl)-9-fluoro-8-methoxy-[1,2,4]triazolo[1,5-c]quinazolin-5-amine]

IC50 (human A2A receptors): 2 nM | IC50 (human A2B receptors): 25.8 nM
SMILES: COc1cc(F)cc2c1nc(N)n1nc([C@@H]3CCCN(c4cnn(C(C)(C)C(C)O)c4)C3)nc21 (single isomer, unassigned) [Example 245, (S or R)-3-(4-((R)-3-(5-amino-9-fluoro-7 methoxy-[1,2,4]triazolo[1,5-c]quinazolin-2-yl)piperidin-1-yl)-1H-pyrazol-1-yl)-3-methylbutan-2-ol]

IC50 (human A2A receptors): 1.4 nM | IC50 (human A2B receptors): 8.4 nM
SMILES: C[C@H]1CC[C@@H](c2nc3c4cc(F)cc(F)c4nc(N)n3n2)CN1c1cnn(C(C)(CO)CO)c1 (single isomer, unassigned) [Example 248, 2-(4-((2S,5R or 2R,5S)-5-(5-amino-7,9-difluoro-[1,2,4]triazolo[1,5-c]quinazolin-2-yl)-2-methylpiperidin-1-yl)-1H-pyrazol-1-yl)-2-methylpropane-1,3-diol]

IC50 (human A2A receptors): 0.9 nM | IC50 (human A2B receptors): 18.8 nM
SMILES: COc1cc(F)cc2c1nc(N)n1nc([C@@H]3CCCN(c4cnn(C(C)(C)C(C)O)c4)C3)nc21 (single isomer, unassigned) [Example 244, (R or S)-3-(4-((R)-3-(5-amino-9-fluoro-7 methoxy-[1,2,4]triazolo[1,5-c]quinazolin-2-yl)piperidin-1-yl)-1H-pyrazol-1-yl)-3-methylbutan-2-ol]
